Measurements published in PubChem BioAssay (NCI).
Values joined by “and” are separate entries in the source; they are usually repeats but may differ in a detail not shown here. Equal entries are not always repeated.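 1) Cells in 96-well plates. 2) Compound, 48 h, 5 concentrations. 3) Linear interpolation between surrounding doses. 4) Unreached endpoint = highest concentration. The concentration for 50% growth inhibition is given as GI50. The concentration for full growth arrest is given as TGI.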

Legend:
Test in all cases: NCI tumour cell line growth inhibition, 48 h
[1] = test system: CCRF-CEM leukemia
[2] = test system: COLO 205 colon
[3] = test system: HCT-116 colon
[4] = test system: OVCAR-5 ovarian
[5] = test system: SF-295 CNS
[6] = test system: SN12C renal
[7] = test system: TK-10 renal
[8] = test system: A498 renal
[9] = test system: MDA-MB-435
[10] = test system: PC-3 prostate

Compound	TGI [1]	TGI [2]	TGI [3]	TGI [4]	TGI [5]	TGI [6]	TGI [7]	GI50 [8] [µM]	TGI [8]	GI50 [3]	GI50 [9] [µM]	TGI [9]	GI50 [4] [µM]	GI50 [10] [µM]	TGI [10]	GI50 [5] [µM]	GI50 [6] [µM]	GI50 [7] [µM]	GI50 [1] [µM]	GI50 [2] [µM]
Cc1cc2c(=O)cc(-c3ccc(F)cc3)oc2c(C(=O)O)c1C	> 100 µM	> 100 µM	> 100 µM	> 100 µM	> 100 µM	> 100 µM	> 100 µM													
O=S(=O)(NCCO)c1cc[c]([Sb](=[O])([OH])[OH])cc1			> 100 µM	> 100 µM	> 100 µM	> 100 µM	> 100 µM	> 100	> 100 µM	> 100 µM	> 100	> 100 µM	> 100	> 100	> 100 µM	> 100	> 100	> 100		
Cc1cc(C)c(C(=O)/C=C/c2ccccc2)c(C)c1	> 100 µM	71.3 µM	78.2 µM		48.8 µM	34.7 µM	> 100 µM													
Cc1cc2c(=O)[nH]c(N)nc2nc1C	> 100 µM	> 100 µM	> 100 µM	> 100 µM	> 100 µM	> 100 µM	> 100 µM		> 100 µM			> 100 µM			> 100 µM					
COC(=O)[C@@H](OC)[C@@H]1Cc2cc3cc(OC4CC(OC5CC(O)C(O)C(C)O5)C(O)C(C)O4)c(C)c(O)c3c(O)c2C(=O)[C@H]1OC1CC(OC2CC(OC3CC(C)(O)C(O)C(C)O3)C(O)C(C)O2)C(O)C(C)O1 (stereo partly specified)	> 7.4 µM		> 16.5 µM	> 16.5 µM	> 5.45 µM	> 16.5 µM	> 16.5 µM	0.0277	0.0717 µM	0.0246 µM	0.0274	0.0605 µM	0.0524	0.0429	0.188 µM	0.0357	0.0389	0.0438	0.035	
COc1cc2c(cc1OC)[C@@H]([C@H](O)c1ccccc1)NCC2	> 100 µM	> 100 µM	> 100 µM	> 100 µM	> 100 µM	> 100 µM	> 100 µM		> 100 µM											
CC(C)(C)N=CN(C=C(c1ccccc1)c1ccccc1)C1CCCCC1	> 100 µM	> 100 µM	> 100 µM	> 100 µM	93.3 µM	> 100 µM	> 100 µM		91.4 µM											
N#C/C(=C\c1cccc2cnccc12)N1N=NC2C=CC=CC21 (stereo unspecified)		> 100 µM		> 100 µM	> 100 µM	> 100 µM	26.3 µM	1.63	5.59 µM		2.87	> 100 µM	4.66	2.76	> 100 µM	32.4	3.24	3.98		3.48
O=C(CC1C(=O)Nc2ccccc2S1(=O)=O)Nc1cccc(Cl)c1 (stereo unspecified)	47.2 µM		32.1 µM	59.1 µM	54.3 µM	29.5 µM	46.6 µM		39.1 µM											
COc1ccc2c(c1)CCN1C3=C(CCC3)C(=O)C[C@@H]21	> 100 µM	> 100 µM	> 100 µM	> 100 µM	> 100 µM	> 100 µM	> 100 µM		> 100 µM											
CCCCCCCCCCCCCCNCC(OCC)OCC	24.5 µM	28 µM	23.1 µM	28.6 µM	30.6 µM	27.9 µM	32.7 µM		28.5 µM											
CC1(C)CC(=O)c2c(ccc(C(=O)C[C@@H](N)CO)c2N)O1	> 60.2 µM	> 37.3 µM	> 100 µM	> 100 µM	> 54.9 µM	> 100 µM	46.8 µM	0.921	27.7 µM	0.347 µM	2.39	> 100 µM	22.8	2.1	> 100 µM	1.29	0.788	9.41	0.556	1.05
CCN(CC)CCCNc1[nH]ncc2c(C)c3nc4ccccc4c3cc12		1.75 µM and 3.23 µM	2.32 µM and 3.31 µM	6.81 µM and 16.6 µM	5.27 µM and 11.8 µM	3.87 µM and 3.6 µM	12.4 µM and 18.1 µM		4.73 µM	0.412 µM and 0.421 µM	0.754	2.12 µM and 4 µM	0.774	0.498	2.11 µM and 4.55 µM	1.3	0.585	2.83	0.132	0.49
C[C@@](O)(/C=C/[C@H]1CC=CC(=O)O1)[C@@H](C[C@@H](O)\C=C/C=C\C=C\CO)OP(=O)(O)O	335 µM and 34.1 µM	18.2 µM and 18.7 µM	8.87 µM and 11 µM	19.1 µM and 15 µM	13.4 µM	80.5 µM	46.6 µM	40.2	83.8 µM and 60.3 µM	4.1 µM		11.7 µM	11.5		12.4 µM				3.52	
Clc1ccc(C2=NOC3C4CCC(C4)C23)cc1 (stereo unspecified)	> 100 µM	> 100 µM	> 100 µM	> 100 µM	> 100 µM	> 100 µM	> 100 µM		> 100 µM											
Clc1cccc2c1OCC1C(c3ccccc3)=NN(c3ccccc3)C21 (stereo unspecified)	> 100 µM	> 100 µM	> 100 µM	> 100 µM	> 100 µM		> 100 µM		> 100 µM											
Brc1ccc(C2SCc3nc4ccccc4n32)cc1 (stereo unspecified)	> 100 µM	27.3 µM	19.6 µM	25.2 µM	24.8 µM	27.7 µM	29.1 µM													
C[n+]1c(/C=C/c2ccc(/C=N/NC(=O)c3ccc(C(=O)N/N=C/c4ccc(/C=C/c5cn6ccccc6[n+]5C)cc4)cc3)cc2)cn2ccccc21	49.8 µM	> 100 µM	> 100 µM	> 100 µM	> 100 µM	> 100 µM	> 100 µM					> 100 µM			> 100 µM					
CC/C(CC(=O)CCC(=O)Nc1ccc(C)c(C)c1)=N\NC(=O)C(N)=O	> 100 µM	> 100 µM	> 100 µM	> 100 µM	> 100 µM	> 100 µM	> 100 µM		> 100 µM											
C/C=C1\CCC2c3[nH]c4ccccc4c3CCN2C1 (stereo unspecified)	> 100 µM		> 100 µM		> 100 µM	> 100 µM	> 100 µM		> 100 µM											

Compound	TGI [1]	TGI [2]	TGI [3]	TGI [4]	TGI [5]	TGI [6]	TGI [7]	GI50 [8] [µM]	TGI [8]	GI50 [3]	GI50 [9] [µM]	TGI [9]	GI50 [4] [µM]	GI50 [10] [µM]	TGI [10]	GI50 [5] [µM]	GI50 [6] [µM]	GI50 [7] [µM]	GI50 [1] [µM]	GI50 [2] [µM]
CC(=O)NC1=C(Sc2ccc(Cl)cc2)C(=O)c2ccccc2C1=O	4.64 µM	3.6 µM		23.9 µM	20.9 µM	16.2 µM	13.5 µM		16.4 µM			4.56 µM			11.7 µM					
COC[C@@H](N=CN1CCc2cc(OC)c(OC)cc2C1)C(C)(C)C	> 100 µM	> 100 µM	> 100 µM		> 100 µM	> 100 µM	> 100 µM													
O=C(Sc1sc(=S)sc1SC(=O)c1ccccc1)c1ccccc1	> 100 µM	> 100 µM	> 100 µM	> 100 µM	> 100 µM	> 100 µM	> 100 µM		78 µM											
CCCCN1CCN(c2ccc3nc(-c4ccc5nc(-c6ccc(OCC)c(OCC)c6)[nH]c5c4)[nH]c3c2)CC1	3.06 µM	1.52 µM	1.66 µM	3.4 µM			5.17 µM	1.18	2.47 µM	0.431 µM	1.09	2.39 µM	1.9	1.08	2.44 µM			1.66	0.538	0.231
COc1ccc(/C(=N/O)c2cc(OC)c(OC)c(OC)c2)c(OC)c1N	> 100 µM	13.5 µM	> 100 µM		> 100 µM	> 100 µM	> 100 µM	4.01	> 100 µM	3.41 µM				3.97	> 100 µM	3.02	15.4	> 100	4.09	3
Cc1cc(NS(=O)(=O)c2ccc(NC(=O)COC(=O)c3cccc4c(=O)c5ccccc5[nH]c34)cc2)no1	> 100 µM	> 100 µM	> 100 µM	> 100 µM	> 100 µM	> 100 µM	> 100 µM		> 100 µM											
COC1=CC(=O)NCCN1	> 100 µM	> 100 µM	> 100 µM	> 100 µM	> 100 µM	> 100 µM	> 100 µM		> 100 µM											
C#CC(=O)OCC#CCOC(=O)C#C	35.4 µM	32.4 µM	35.7 µM		> 100 µM	82.3 µM	37.9 µM		> 100 µM			> 100 µM			> 100 µM					
O=C1c2c(c3c4ccccc4[nH]c3c3[nH]c4ccccc4c23)C(=O)N1Cc1ccccc1	13.3 µM	4.66 µM	8.76 µM	7.61 µM	13.3 µM	5.6 µM	11.6 µM													
CCOP(=O)(CC(=O)C1=C(O)C(CCCCNC(=O)OC(C)(C)C)N(Cc2ccccc2)C1=O)OCC (stereo unspecified)	> 100 µM	> 100 µM	> 100 µM	> 100 µM	> 100 µM	> 100 µM	> 100 µM		> 100 µM											
CN(C)c1ccc(/C=N/NC(=O)c2cccc3ccccc23)c(Cl)c1	> 100 µM	> 100 µM	> 100 µM	> 100 µM	9.96 µM	> 100 µM	39.3 µM	0.422	6.26 µM	0.559 µM			24.1	2.24	> 100 µM	0.588	8.85	5	0.581	2.88
COc1cc2ccc(CC(N)=O)cc2cc1OC	> 100 µM	> 100 µM	> 100 µM	> 100 µM	> 100 µM	> 100 µM	> 100 µM													
CC12CC(Sc3ccccc3N1)c1ccccc1O2 (stereo unspecified)	36.5 µM	29.9 µM	29.2 µM	33.3 µM	29.8 µM	36 µM	51.4 µM		33 µM											
O=C(NC(=O)c1cc2cc(Br)cc(Br)c2oc1=O)Oc1ccccc1	> 100 µM	> 100 µM	> 100 µM	> 100 µM	> 100 µM	> 100 µM	> 100 µM		> 100 µM											
CC(=O)c1cccc(NC(=O)c2ccc(NC3=C(Cl)C(=O)N(Cc4ccccc4)C3=O)cc2)c1		> 100 µM	25.9 µM	> 100 µM	47.8 µM	9.63 µM		19.6	60.4 µM	12.6 µM	11.8	30.1 µM	> 100	15.9	36.4 µM	15.3	1.92			29.2
CCN(CC)CCC(=O)/C=C/c1ccc(C)cc1	56.1 µM	16.8 µM	26.2 µM	32.6 µM	34.6 µM	24.8 µM	19.3 µM		24 µM											
COc1ccc(C(=O)OC2C(OC3C(O)COC(O[C@H]4C[C@H]5[C@@H]6CC=C7C[C@@H](O)CC[C@]7(C)[C@H]6CC[C@]5(C)[C@H]4[C@H](C)C(=O)CCC(C)C)C3OC(C)=O)OCC(O)C2O)cc1 (stereo partly specified)		0.0194 µM	3.15 µM	1.63 µM	< 0.003 µM	28.3 µM	6.6 µM	< 0.003	< 0.003 µM	< 0.003 µM	< 0.003	0.0435 µM	0.00601	< 0.003	0.311 µM	< 0.003	1.11	0.0148		< 0.003
Cc1ccc(S(=O)(=O)SCc2ccccc2)cc1	7.25 µM	27.4 µM	26.4 µM	> 100 µM	> 89.7 µM	50.4 µM	> 100 µM		> 100 µM											
O=C(COc1ccc(-c2nc3cc(Cl)c(Cl)cc3[nH]2)cc1)N=Nc1c(O)[nH]c2ccccc12	> 100 µM	> 100 µM	> 100 µM	> 100 µM	9.01 µM	> 100 µM	> 58.5 µM	3.62	18.6 µM	9.12 µM			> 100			2.63	3.85	> 33.1	0.749	2.29
